Results taken from ChEMBL document CHEMBL2396568, “An insight into synthetic Schiff bases revealing antiproliferative activities in vitro” (Bioorg Med Chem, 2013).

Assays:
[1] = system: KB; experiment: Antiproliferative activity against hydroxyurea-resistant human KB cells after 24 hrs by MTS assay; assay type: functional, cell-based
[2] = system: KB; experiment: Antiproliferative activity against wild-type human KB cells after 24 hrs by MTS assay; assay type: functional, cell-based
[3] = system: L1210; experiment: Antiproliferative activity against mouse L1210 cells after 24 hrs by MTS assay; assay type: functional, cell-based; details: L1210, 24 h
[4] = Antiproliferative activity against human T-lymphoblastic leukemia cells by MTT assay; assay type: functional; details: Leukemia cell, read-out: CD50 (the source's name)
[5] = system: Artemia salina; experiment: Toxicity in brine shrimp; assay type: functional; details: read-out: ED50 (the source's name)
[6] = system: MCF7; experiment: Antiproliferative activity against doxorubicin-resistant human MCF7 cells after 72 hrs by neutral red uptake assay; assay type: functional, cell-based; details: Homo sapiens, MCF7, 72 h
[7] = system: KB; experiment: Antiproliferative activity against human KB cells after 72 hrs by neutral red uptake assay; assay type: functional, cell-based; details: Homo sapiens, KB, 72 h
[8] = system: MCF7; experiment: Antiproliferative activity against wild-type human MCF7 cells after 72 hrs by neutral red uptake assay; assay type: functional, cell-based; details: Homo sapiens, MCF7, 72 h
[9] = system: K562; experiment: Antiproliferative activity against human K562 cells by MTT assay; assay type: functional, cell-based
[10] = system: HeLa; experiment: Antiproliferative activity against human HeLa cells after 48 hrs by MTT assay; assay type: functional, cell-based
[11] = system: A549; experiment: Antiproliferative activity against human A549 cells after 48 hrs by MTT assay; assay type: functional, cell-based; details: A549, 48 h
[12] = system: HeLa; experiment: Antiproliferative activity against human HeLa cells after 24 hrs by MTT assay; assay type: functional, cell-based
[13] = system: A549; experiment: Antiproliferative activity against human A549 cells after 24 hrs by MTT assay; assay type: functional, cell-based; details: A549, 24 h

`O=C(NO)N/N=C/c1ccc(O)c(O)c1O` showed an IC50 [1] of 15.3 µM and an IC50 [2] of 37.5 µM.
For `Cc1c2ccccc2c(/C=N/NC(=O)NO)c2ccccc12`, the IC50 [3] was 6.5 µM, the IC50 [1] was 8.9 µM and the IC50 [2] was 9.3 µM.
`O=C(NO)N/N=C/c1ccc([N+](=O)[O-])s1` showed an IC50 [1] of 28 µM and an IC50 [2] of 27.2 µM.
In the case of `C(=N\Cc1ccco1)/c1c2ccccc2cc2ccccc12`, the CC50 [4] is reported as 67.8 µM.
With `CCC(C)C(/N=C1/c2c(O)cccc2Cc2cc(CO)cc(O)c21)C(=O)O` (configuration not stated) the EC50 [5] was 246 µM.
In the case of `CC(O)C(/N=C1/c2c(O)cccc2Cc2cc(CO)cc(O)c21)C(=O)O` (configuration not stated), the EC50 [5] is reported as 339 µM.
For `C/N=C/c1c(O)c(O)c(C(C)C)c2c1C(=O)C(C1=C(C)C(=O)c3c(c(/C=N/C)c(O)c(O)c3C(C)C)C1=O)=C(C)C2=O`, the IC50 [6] was 0.1 µM, the IC50 [7] was 0.5 µM and the IC50 [8] was 0.4 µM.
With `S=C(N/N=C(\c1ccccc1)c1ccccn1)SCc1ccccc1` the IC50 [9] was 37 µM.
Molecule `O=C(O)C/N=C1/c2c(O)cccc2C([C@@H]2O[C@H](CO)[C@@H](O)[C@H](O)[C@H]2O)c2cc(CO)cc(O)c21` (some centres not stated) has an EC50 [5] of 408 µM.
Work on `CC(/N=C1/c2c(O)cccc2C([C@@H]2O[C@H](CO)[C@@H](O)[C@H](O)[C@H]2O)c2cc(CO)cc(O)c21)C(=O)O` (some centres not stated) yielded an EC50 [5] of 130 µM.
`O=C(O)C(Cc1ccccc1)/N=C1/c2c(O)cccc2C([C@@H]2O[C@H](CO)[C@@H](O)[C@H](O)[C@H]2O)c2cc(CO)cc(O)c21` (some centres not stated) showed an EC50 [5] of 312 µM.
In the case of `CC(C)CC(/N=C1/c2c(O)cccc2C([C@@H]2O[C@H](CO)[C@@H](O)[C@H](O)[C@H]2O)c2cc(CO)cc(O)c21)C(=O)O` (some centres not stated), the EC50 [5] is reported as 32 µM.
`CCC(C)C(/N=C1/c2c(O)cccc2C([C@@H]2O[C@H](CO)[C@@H](O)[C@H](O)[C@H]2O)c2cc(CO)cc(O)c21)C(=O)O` (some centres not stated) showed an EC50 [5] of 35.2 µM.
For `Cc1cc(O)c2c(c1)C([C@@H]1O[C@H](CO)[C@@H](O)[C@H](O)[C@H]1O)c1cccc(O)c1/C2=N/C(CS)C(=O)O` (some centres not stated), the EC50 [5] was 10.2 µM.
Molecule `CSCCC(/N=C1/c2c(O)cccc2C([C@@H]2O[C@H](CO)[C@@H](O)[C@H](O)[C@H]2O)c2cc(CO)cc(O)c21)C(=O)O` (some centres not stated) has an EC50 [5] of 404 µM.
With `CC(C)C(/N=C1/c2c(O)cccc2C([C@@H]2O[C@H](CO)[C@@H](O)[C@H](O)[C@H]2O)c2cc(CO)cc(O)c21)C(=O)O` (some centres not stated) the EC50 [5] was 19.1 µM.
`CC(O)C(/N=C1/c2c(O)cccc2C([C@@H]2O[C@H](CO)[C@@H](O)[C@H](O)[C@H]2O)c2cc(CO)cc(O)c21)C(=O)O` (some centres not stated) gave an EC50 [5] of 27.6 µM.
`O=C(O)C/N=C1/c2c(O)cccc2Cc2cc(CO)cc(O)c21` showed an EC50 [5] of 1030 µM.
Work on `CC(/N=C1/c2c(O)cccc2Cc2cc(CO)cc(O)c21)C(=O)O` (configuration not stated) yielded an EC50 [5] of 339 µM.
In the case of `O=C(O)C(Cc1ccccc1)/N=C1/c2c(O)cccc2Cc2cc(CO)cc(O)c21` (configuration not stated), the EC50 [5] is reported as 335 µM.
Work on `CC(C)CC(/N=C1/c2c(O)cccc2Cc2cc(CO)cc(O)c21)C(=O)O` (configuration not stated) yielded an EC50 [5] of 72.2 µM.
`Cc1cc(O)c2c(c1)Cc1cccc(O)c1/C2=N/C(CS)C(=O)O` (configuration not stated) gave an EC50 [5] of 423 µM.
Molecule `CSCCC(/N=C1/c2c(O)cccc2Cc2cc(CO)cc(O)c21)C(=O)O` (configuration not stated) has an EC50 [5] of 836 µM.
`CC(C)C(/N=C1/c2c(O)cccc2Cc2cc(CO)cc(O)c21)C(=O)O` (configuration not stated) gave an EC50 [5] of 145 µM.
`Clc1ccc(/C=N/c2ccccc2)c(Cl)c1` showed an IC50 [10] of 0.5 µM, an IC50 [11] of 0.8 µM and an IC50 [12] of 1.3 µM. It also gave an IC50 [13] of 1.4 µM.
Molecule `Cc1ccc(/C=N/c2ccccc2)c(C)c1` has an IC50 [10] of 33 µM, an IC50 [11] of 88.4 µM and an IC50 [12] of 115 µM. The IC50 [13] was 144 µM.
`C(=N\c1ccccc1)/c1ccc2c(c1)OCO2` showed an IC50 [10] of 24.9 µM, an IC50 [11] of 177 µM and an IC50 [12] of 42.2 µM. The IC50 [13] was 207 µM.
